Source: patent publication US20240199623A1 (ILDONG PHARMACEUTICAL CO., LTD., priority 2020, published 2024)
≈ marks a conversion by molar mass, not a printed value.

Columns and labels:
human wild type-CFTR [1] = biological target: T1, human wild type-CFTR (Homo sapiens, UniProt P13569); assay: Cell-based YFP assay; design: expressed in transfected cells; host or cells: CHO-K1 (Chinese hamster ovary); details: CHO-K1 cells expressing human wild type-CFTR and YFP-H148Q/I152L; forskolin 20 μM = 100% activity; read-out: Cell-based YFP Assay (EC50) Concentration Range
Method in brief: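 I⁻-driven YFP fluorescence quenching at 37 °C: 2 s baseline, addition of 140 mM iodide solution, then 14 s of readings at 0.4 s intervals. Cells were CHO-K1 expressing human wild-type CFTR plus YFP-H148Q/I152L. EC50 derived from averaged triplicates.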

[2] = Phosphate-buffered saline (PBS) solubility of compounds; assay type: physicochemical; details: aqueous buffer, thermodynamic from solid, PBS pH 7.5, 0.5 mg/mL, vortexed 90 min, filtered, LC-MS/MS, read-out: Solubility Range
Procedure: PBS solutions (pH 7.5) were prepared according to the following compositions and stored at 4° C. Test compounds were dissolved in PBS (pH 7.5) at 0.5 mg/mL and vortexed for 90 min. The PBS solution was sequentially filtered through a 0.45, 1.2, […] syringe filter. Concentration of test compounds were determined using LC-MS/MS with appropriate dilution of the samples.

human wild type-CFTR [3] = biological target: T1, human wild type-CFTR; assay: Short-circuit current measurement; assay type: cell-based; design: expressed in transfected cells; details: FRT cells expressing human wild type-CFTR; Forskolin 20 μM signal used as 100% activity; read-out: Short-circuit current measurement (EC50) Concentration range
Excerpt: Forskolin (Tocris cat. #1099), CFTRinh-172 (Tocris cat. #3430), amphotericin B (Tocris cat. #6930), dimethyl sulfoxide (Sigma cat. #D4540), EVC4000 Multi-Channel V/I Clamp (World Precision Instruments, Sarasota, FL), PowerLab 4/35 (AD Instruments, Castle Hill, Australia), Labchart Pro 7, GraphPad Prism 5 (GraphPad Software, Inc.). Fisher rat thyroid (FRT) cells expressing human wild type-CFTR were provided by Dr. Alan Verkman (University of California, San Francisco) and grown in DMEM/F12 medium (1:1) supplemented with 10% FBS, 2 mM glutamine, 100 units/ml penicillin and 100 μg/ml streptomycin. Snapwell inserts containing CF TR-expressing FRT cells were mounted in Ussing chambers (Physiologic Instruments, San Diego, CA). […] Forskolin, test compounds, and CFTRinh-172 were added to the apical and basolateral bath solution. Apical membrane current and short-circuit current were measured with an EVC4000 Multi-Channel V/I Clamp (World Precision Instruments, Sarasota, FL) and recorded using PowerLab 4/35 (AD Instruments, Castle Hill, Australia). Data were collected and analyzed with ADInstruments acquisition software Labchart Pro 7 software. The sampling rate was 4 Hz.

T1 sequence (P13569 whole entry): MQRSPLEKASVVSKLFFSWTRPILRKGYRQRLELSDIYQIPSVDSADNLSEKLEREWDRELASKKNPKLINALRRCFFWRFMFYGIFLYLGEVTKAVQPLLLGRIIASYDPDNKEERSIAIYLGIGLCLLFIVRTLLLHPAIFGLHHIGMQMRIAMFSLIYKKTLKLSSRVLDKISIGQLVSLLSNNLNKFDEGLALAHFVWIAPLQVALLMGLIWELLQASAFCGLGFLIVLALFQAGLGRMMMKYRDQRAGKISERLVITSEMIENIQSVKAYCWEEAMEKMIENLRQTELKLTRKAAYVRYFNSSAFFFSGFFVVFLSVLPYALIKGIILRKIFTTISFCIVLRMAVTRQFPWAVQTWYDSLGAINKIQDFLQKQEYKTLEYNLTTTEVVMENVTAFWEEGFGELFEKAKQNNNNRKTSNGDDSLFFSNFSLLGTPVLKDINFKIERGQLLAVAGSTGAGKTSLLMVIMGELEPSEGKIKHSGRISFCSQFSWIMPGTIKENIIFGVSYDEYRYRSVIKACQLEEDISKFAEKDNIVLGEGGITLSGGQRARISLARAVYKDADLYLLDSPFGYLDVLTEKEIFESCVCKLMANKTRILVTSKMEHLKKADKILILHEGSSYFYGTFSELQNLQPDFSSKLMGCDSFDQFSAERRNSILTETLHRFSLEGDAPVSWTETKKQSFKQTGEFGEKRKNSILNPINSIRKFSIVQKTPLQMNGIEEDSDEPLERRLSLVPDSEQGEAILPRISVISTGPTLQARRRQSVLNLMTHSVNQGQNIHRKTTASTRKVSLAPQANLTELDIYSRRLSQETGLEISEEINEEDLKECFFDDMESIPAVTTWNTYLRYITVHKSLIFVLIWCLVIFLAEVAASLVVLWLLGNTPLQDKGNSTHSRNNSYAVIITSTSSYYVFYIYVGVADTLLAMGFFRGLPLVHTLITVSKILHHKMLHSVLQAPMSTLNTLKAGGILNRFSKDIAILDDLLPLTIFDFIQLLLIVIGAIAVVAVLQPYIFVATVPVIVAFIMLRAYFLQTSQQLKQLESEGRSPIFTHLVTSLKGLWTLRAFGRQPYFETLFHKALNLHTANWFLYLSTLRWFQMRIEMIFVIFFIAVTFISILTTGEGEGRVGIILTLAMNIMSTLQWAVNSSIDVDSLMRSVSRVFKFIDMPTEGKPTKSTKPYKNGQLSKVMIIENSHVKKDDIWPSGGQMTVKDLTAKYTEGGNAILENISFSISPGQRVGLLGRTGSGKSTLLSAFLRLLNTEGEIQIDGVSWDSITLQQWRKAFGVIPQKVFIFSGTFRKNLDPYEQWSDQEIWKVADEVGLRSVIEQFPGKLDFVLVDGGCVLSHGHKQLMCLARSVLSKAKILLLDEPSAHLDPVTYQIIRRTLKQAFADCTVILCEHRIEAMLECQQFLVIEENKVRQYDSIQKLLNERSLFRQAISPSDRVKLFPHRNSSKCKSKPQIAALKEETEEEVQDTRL

SMILES	EC50 (human wild type-CFTR [1]) [nM]	solubility at 90 min [2] [µg/mL]	EC50 (human wild type-CFTR [3]) [nM]
COc1ccc(-c2ccnc3cc(C(=O)Nc4ccc(C(=O)OCCCN5CCOCC5)cn4)nn23)cc1OC [Compound 142, 3-morpholinopropyl 6-(7-(3,4-dimethoxyphenyl)pyrazolo [1,5-a]pyrimidine-2-carboxamido)nicotinate]	< 200	< 0.1	< 200
COc1ccc(-c2ccnc3cc(C(=O)Nc4ccc(OC(=O)[C@@H](NC(=O)OC(C)(C)C)C(C)C)cc4)nn23)cc1OC [Compound 200, 4-(7-(3,4-dimethoxyphenyl)pyrazolo[1,5-a]pyrimidine-2-carboxamido)phenyl(tert-butoxycarbonyl)-L-valinate]	< 200		< 200
CCOC(=O)CNC(=O)c1ccc(NC(=O)c2cc3nccc(-c4ccc(OC)c(OC)c4)n3n2)cc1 [Compound 28, ethyl (4-(7-(3,4-dimethoxyphenyl)pyrazolo [1,5-a]pyrimidine-2-carboxamido)benzoyl)glycinate]	< 200	< 0.1	< 200
COC(=O)c1ccc2c(c1)CCN2C(=O)c1cc2nccc(-c3ccc(OC)c(OC)c3)n2n1 [Compound 130, methyl 1-(7-(3,4-dimethoxyphenyl)pyrazolo [1,5-a]pyrimidine-2-carbonyl)indoline-5-carboxylate]	< 200	< 0.1	200 to 2000
COc1ccc(-c2ccnc3cc(C(=O)Nc4ccc(C(=O)N5CCN(C)CC5)cc4Cl)nn23)cc1OC [Compound 137, N-(2-chloro-4-(4-methylpiperazine-1-carbonyl)phenyl)-7-(3,4-dimethoxyphenyl)pyrazolo [1,5-a]pyrimidine-2-carboxamide]	200 to 2000		200 to 2000
COC(=O)c1ccc2c(c1)CCCN2C(=O)c1cc2nccc(-c3ccc(OC)c(OC)c3)n2n1 [Compound 133, methyl 1-(7-(3,4-dimethoxyphenyl)pyrazolo [1,5-a]pyrimidine-2-carbonyl)-1,2,3,4-tetrahydroquinoline-6-carboxylate]	< 200	< 0.1	< 200
COc1ccc(-c2ccnc3cc(C(=O)Nc4ccc(N5CCCC5)cc4)nn23)cc1OC [Compound 277, 7-(3,4-dimethoxyphenyl)-N-(4-(pyrrolidin-1-yl)phenyl)pyrazolo[1,5-a] pyrimidine-2-carboxamide]	< 200	< 0.1	< 200
COc1ccc(-c2ccnc3cc(C(=O)Nc4ccc(C(=O)O)cc4Cl)nn23)cc1OC [Compound 106, 3-chloro-4-(7-(3,4-dimethoxyphenyl)pyrazolo [1,5-a]pyrimidine-2-carboxamido)benzoic acid]	< 200	< 0.1	≥ 2000
COc1ccc(-c2ccnc3cc(C(=O)Nc4ccc(N5CCCC5)cn4)nn23)cc1OC [Compound 289, 7-(3,4-dimethoxyphenyl)-N-(5-(pyrrolidin-1-yl)pyridin-2-yl)pyrazolo[1,5-a]pyrimidine-2-carboxamide]	< 200		< 200
CCOC(=O)N1CCN(C(=O)c2cc3nccc(-c4ccc(OC)c(OC)c4)n3n2)CC1 [Compound 111, ethyl 4-(7-(3,4-dimethoxyphenyl)pyrazolo[1,5-a]pyrimidine-2-carbonyl) piperazine-1-carboxylate]	200 to 2000		≥ 2000
COc1ccc(-c2ccnc3cc(C(=O)Nc4ccc(N5CCC(=O)CC5)cc4)nn23)cc1OC [Compound 285, 7-(3,4-dimethoxyphenyl)-N-(4-(4-oxopiperidin-1-yl)phenyl)pyrazolo [1,5-a]pyrimidine-2-carboxamide]	< 200		< 200
COc1ccc(-c2ccnc3cc(C(=O)Nc4ccc(C(=O)O)cn4)nn23)cc1OC [Compound 78, 6-(7-(3,4-dimethoxyphenyl)pyrazolo[1,5-a]pyrimidine-2-carboxamido) nicotinic acid]	200 to 2000		200 to 2000
COC(=O)[C@@H]1CCCN1C(=O)c1ccc(NC(=O)c2cc3nccc(-c4ccc(OC)c(OC)c4)n3n2)cc1 [Compound 47, methyl (4-(7-(3,4-dimethoxyphenyl)pyrazolo [1,5-a]pyrimidine-2-carboxamido)benzoyl)-L-prolinate]	< 200	< 0.1	
COc1ccc(-c2ccnc3cc(C(=O)Nc4ccc(C(=O)N5CCOCC5)c(O)c4)nn23)cc1OC [Compound 169, 7-(3,4-dimethoxyphenyl)-N-(3-hydroxy-4-(morpholine-4-carbonyl)phenyl)pyrazolo[1,5-a]pyrimidine-2-carboxamide]	< 200	< 0.1	
COc1ccc(-c2ccnc3cc(C(=O)Nc4ccc(C(=O)N5CCN(C(=O)OC(C)(C)C)CC5)cc4)nn23)cc1OC [Compound 51, tert-butyl 4-(4-(7-(3,4-dimethoxyphenyl)pyrazolo [1,5-a]pyrimidine-2-carboxamido)benzoyl) piperazine-1-carboxylate]	< 200	< 0.1	
COC(=O)c1ccc(NC(=O)c2cc3nccc(-c4ccc(OC)c(Cl)c4)n3n2)cc1 [Compound 39, methyl 4-(7-(3-chloro-4-methoxyphenyl)pyrazolo [1,5-a]pyrimidine-2-carboxamido)benzoate]	200 to 2000	< 0.1	
COc1ccc(-c2ccnc3cc(C(=O)NC4CCN(C(=O)OC(C)(C)C)CC4)nn23)cc1OC [Compound 63, tert-butyl 4-(7-(3,4-dimethoxyphenyl)pyrazolo[1,5-a]pyrimidine-2-carboxamido)piperidine-1-carboxylate]	200 to 2000	0.1 to 10 (≈ 0.208 to 20.8 µM)	
COC(=O)c1ccc(NC(=O)c2cc3nccc(-c4ccc(OC)c(OC)c4)n3n2)cc1O [Compound 167, methyl 4-(7-(3,4-dimethoxyphenyl)pyrazolo [1,5-a]pyrimidine-2-carboxamido)-2-hydroxybenzoate]	< 200	< 0.1	
COc1ccc(-c2ccnc3cc(C(=O)Nc4ccc(C(=O)O)c(O)c4)nn23)cc1OC [Compound 168, 4-(7-(3,4-dimethoxyphenyl)pyrazolo[1,5-a]pyrimidine-2-carboxamido)-2-hydroxybenzoic acid]	200 to 2000	< 0.1	
COc1ccc(-c2ccnc3cc(C(=O)N[C@H]4CC[C@H](C(=O)N5CCOCC5)CC4)nn23)cc1OC [Compound 75, 7-(3,4-dimethoxyphenyl)-N-((1R,4R)-4-(morpholine-4-carbonyl)cyclohexyl) pyrazolo[1,5-a]pyrimidine-2-carboxamide]	≥ 2000	> 10	
COc1ccc(-c2ccnc3cc(C(=O)Nc4ccc(NC(=O)[C@H](C)NC(=O)OC(C)(C)C)cc4)nn23)cc1OC [Compound 281]	< 200	< 0.1	
CCOC(=O)N1CCN(C(=O)c2cc3nccc(-c4ccc(OC)c(OC)c4)n3n2)CC1 [Compound 86, ethyl 4-(7-(3,4-dimethoxyphenyl)pyrazolo[1,5-a]pyrimidine-2-carbonyl) piperazine-1-carboxylate]	200 to 2000		≥ 2000
COc1ccc(-c2ccnc3cc(C(=O)Nc4ccc(C(=O)N5CCOCC5)c(Cl)c4)nn23)cc1OC [Compound 160, N-(3-chloro-4-(morpholine-4-carbonyl)phenyl)-7-(3,4-dimethoxyphenyl) pyrazolo[1,5-a]pyrimidine-2-carboxamide]	200 to 2000	< 0.1	
COC(=O)c1ccc(NC(=O)c2cc3nccc(-c4cc(OC)c(OC)c(OC)c4)n3n2)cc1 [Compound 32, methyl 4-(7-(3,4,5-trimethoxyphenyl)pyrazolo [1,5-a]pyrimidine-2-carboxamido)benzoate]	< 200	< 0.1	
COc1ccc(-c2ccnc3cc(C(=O)Nc4ccc(N5CCN(C)CC5)cn4)nn23)cc1OC [Compound 204, 7-(3,4-dimethoxyphenyl)-N-(5-(4-methylpiperazin-1-yl)pyridin-2-yl)pyrazolo[1,5-a]pyrimidine-2-carboxamide]	< 200	< 0.1	
COc1ccc(-c2ccnc3cc(C(=O)N4CC[C@H](NC(=O)OC(C)(C)C)C4)nn23)cc1OC [Compound 145, tert-butyl (S)-(1-(7-(3,4-dimethoxyphenyl)pyrazolo [1,5-a]pyrimidine-2-carbonyl)pyrrolidine-3-yl)carbamate]	200 to 2000	0.1 to 10 (≈ 0.214 to 21.4 µM)	
